Format in all cases: cell membranes
One assay deals with T1, Cytochrome P450 1A1 (Homo sapiens, UniProt P04798).
T1 sequence (P04798 whole entry): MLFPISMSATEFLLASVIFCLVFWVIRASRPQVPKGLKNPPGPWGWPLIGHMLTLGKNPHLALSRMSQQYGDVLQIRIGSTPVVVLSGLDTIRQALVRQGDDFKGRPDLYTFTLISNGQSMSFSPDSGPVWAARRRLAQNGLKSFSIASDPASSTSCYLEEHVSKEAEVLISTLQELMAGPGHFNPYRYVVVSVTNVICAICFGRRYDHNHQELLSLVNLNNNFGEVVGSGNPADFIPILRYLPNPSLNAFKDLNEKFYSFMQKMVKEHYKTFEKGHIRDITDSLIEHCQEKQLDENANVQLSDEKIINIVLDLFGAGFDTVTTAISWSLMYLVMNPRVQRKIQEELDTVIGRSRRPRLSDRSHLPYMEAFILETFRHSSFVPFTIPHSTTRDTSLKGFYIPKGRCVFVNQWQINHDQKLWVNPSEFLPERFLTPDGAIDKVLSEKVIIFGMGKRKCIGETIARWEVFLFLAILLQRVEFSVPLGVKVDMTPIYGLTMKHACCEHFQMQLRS
As to the kind of experiment: Inhibition of recombinant human CYP1A1 expressed in Escherichia coli membranes co-expressing NADPH-P450 reductase assessed as reduction in ethoxyresorufin O-de-ethylation preincubated for 3 mins followed by NADPH addition and measured after 10 mins by fluorometric method.

For assay [1], the species on record is Homo sapiens. Briefly: Selectivity ratio of IC50 for recombinant human CYP1A2 expressed in Escherichia coli membranes to IC50 for recombinant human CYP1B1 expressed in Escherichia coli membranes.
Assay [2] is filed under the species Homo sapiens. As to the kind of experiment: Selectivity ratio of IC50 for recombinant human CYP1A1 expressed in Escherichia coli membranes to IC50 for recombinant human CYP1A2 expressed in Escherichia coli membranes.
The species entered for assay [3] is Homo sapiens. Briefly: Selectivity ratio of IC50 for recombinant human CYP1A1 expressed in Escherichia coli membranes to IC50 for recombinant human CYP1B1 expressed in Escherichia coli membranes.
The target of a further assay is T2, Cytochrome P450 1B1 (Homo sapiens, UniProt Q16678).
T2 sequence (Q16678 whole entry): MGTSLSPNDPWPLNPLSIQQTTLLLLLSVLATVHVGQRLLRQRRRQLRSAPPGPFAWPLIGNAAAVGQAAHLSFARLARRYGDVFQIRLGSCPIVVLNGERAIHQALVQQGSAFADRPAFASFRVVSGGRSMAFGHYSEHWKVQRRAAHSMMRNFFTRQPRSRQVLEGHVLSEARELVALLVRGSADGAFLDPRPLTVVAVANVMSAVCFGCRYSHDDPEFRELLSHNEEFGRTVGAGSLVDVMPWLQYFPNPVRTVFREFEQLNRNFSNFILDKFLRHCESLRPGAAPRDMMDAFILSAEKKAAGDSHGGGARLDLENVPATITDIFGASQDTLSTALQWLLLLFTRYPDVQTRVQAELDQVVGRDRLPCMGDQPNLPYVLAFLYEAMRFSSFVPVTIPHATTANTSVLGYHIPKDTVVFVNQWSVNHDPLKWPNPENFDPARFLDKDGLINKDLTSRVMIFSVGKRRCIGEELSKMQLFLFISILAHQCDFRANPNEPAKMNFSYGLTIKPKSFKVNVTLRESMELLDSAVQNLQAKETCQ
Briefly: Inhibition of recombinant human CYP1B1 expressed in Escherichia coli membranes co-expressing NADPH-P450 reductase assessed as reduction in ethoxyresorufin O-de-ethylation preincubated for 3 mins followed by NADPH addition and measured after 10 mins by fluorometric method.

The next assay addresses T3, Cytochrome P450 1A2 (Homo sapiens, UniProt P05177).
T3 sequence (P05177 whole entry): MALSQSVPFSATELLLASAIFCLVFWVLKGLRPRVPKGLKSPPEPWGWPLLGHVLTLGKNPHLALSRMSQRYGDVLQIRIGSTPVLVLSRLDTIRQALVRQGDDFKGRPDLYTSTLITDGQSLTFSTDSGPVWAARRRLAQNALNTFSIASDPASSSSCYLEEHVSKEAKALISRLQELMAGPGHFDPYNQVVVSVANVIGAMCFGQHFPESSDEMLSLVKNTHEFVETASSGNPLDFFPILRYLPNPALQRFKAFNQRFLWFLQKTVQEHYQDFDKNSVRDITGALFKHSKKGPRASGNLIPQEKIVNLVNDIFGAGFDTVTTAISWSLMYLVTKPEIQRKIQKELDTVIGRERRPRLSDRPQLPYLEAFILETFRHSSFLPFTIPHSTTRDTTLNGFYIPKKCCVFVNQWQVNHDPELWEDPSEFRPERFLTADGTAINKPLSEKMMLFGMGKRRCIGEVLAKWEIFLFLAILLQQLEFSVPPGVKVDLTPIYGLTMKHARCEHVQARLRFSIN
As to the kind of experiment: Inhibition of recombinant human CYP1A2 expressed in Escherichia coli membranes co-expressing NADPH-P450 reductase assessed as reduction in ethoxyresorufin O-de-ethylation preincubated for 3 mins followed by NADPH addition and measured after 10 mins by fluorometric method.

For orientation: IC50 means the concentration that gives 50% inhibition. Regarding `O=c1cc(-c2ccccc2)oc2c1ccc1ccccc12` [ALPHA-NAPHTHOFLAVONE], the IC50 at Cytochrome P450 1A1 came out at 0.055 µM.
As for `COc1cc(/C=C/c2cccs2)cc(OC)c1`, the Ratio IC50 in the assay filed under Homo sapiens [1] was 5.5; in the assay filed under Homo sapiens [2], 5.5; in the assay listed under Homo sapiens [3], 30.5.
With `COc1cc(/C=C/c2cccs2)cc(OCCn2ccnc2)c1`, the Ratio IC50 in the assay filed under Homo sapiens [1] stood at 0.4; in the assay filed under Homo sapiens [2], 27.3; in the assay filed under Homo sapiens [3] it was 10.3. In addition, the IC50 on Cytochrome P450 1A1 was determined as 0.041 µM; on Cytochrome P450 1B1, 0.004 µM; at Cytochrome P450 1A2 it was 0.0015 µM.

(Values after ChEMBL document CHEMBL4325932, “Adaptable Small Ligand of CYP1 Enzymes for Use in Understanding the Structural Features Determining Isoform Selectivity” (ACS Med Chem Lett, 2018).)
